Measurements as given in patent US9326989B2, “Oleyl phosphocholine” (Max-Planck-Gesellschaft zur Foerderung der Wissenschaften …, priority 2007, dated 2016).

Assays:
[1] = tested on: canine leishmaniasis; assay: dosage range (start of activity to start of toxicity) in dog; format: in vivo; details: higher doses not tolerated, lower doses almost ineffective
[2] = animal experiments
[3] = renal values (creatinine) in long-term applications; format: in vivo; details: long-term applications over several months, therapeutically effective dosages
From the text: Oleyl phosphocholine is the first alkyl phosphocholine which can be used orally and intravenously.

[4] = stability in injection or infusion solutions or tablets; format: physicochemical; details: 30° C.
From the text: For use in veterinary medicine, it is also useful that mixtures of oleyl phosphocholine (90%) and hexadecyl phosphocholine (10%) can be used and can be made available extremely inexpensively from olive oil.

Row | SMILES | dose at which activity against canine leishmaniasis started [1] | therapeutic action compared to C18-PC (octadecyl) and C18:1(trans)-PC (elaidyl) [2] | renal values (increase in creatinine) [3] | stability [4]
1 | CCCCCCCCCCCCCCCCOP(=O)([O-])OCC[N+](C)(C)C [HePC, hexadecyl phosphocholine] | 3 mg per kg body weight per day |  |  | 
2 | CCCCCCCC/C=C\CCCCCCCCOP(=O)([O-])OCC[N+](C)(C)C [OlPC, oleyl phosphocholine] |  | markedly superior | no deterioration in the renal values | can be guaranteed over a longer period
